Measured values as given in paper PMC12750277, “Combining Experimental Assays and Molecular Modeling to Evaluate Monosubstituted Cinnamic Acid Derivatives as PDE4B Inhibitors” (ACS Omega, 2025).
Values joined by “and” are separate entries in the source; they are usually repeats but may differ in a detail not shown here. Identical values can stand only once. Like-named read-outs stand apart in the source and are kept apart here.

Assays:
PDE4B = PDE4B (Homo sapiens, UniProt Q07343); assay: Human PDE4 enzyme inhibition assay ([3H]-cAMP), PDE4B; format: biochemical
Chain of PDE4B (Q07343 249-736 limits assumed): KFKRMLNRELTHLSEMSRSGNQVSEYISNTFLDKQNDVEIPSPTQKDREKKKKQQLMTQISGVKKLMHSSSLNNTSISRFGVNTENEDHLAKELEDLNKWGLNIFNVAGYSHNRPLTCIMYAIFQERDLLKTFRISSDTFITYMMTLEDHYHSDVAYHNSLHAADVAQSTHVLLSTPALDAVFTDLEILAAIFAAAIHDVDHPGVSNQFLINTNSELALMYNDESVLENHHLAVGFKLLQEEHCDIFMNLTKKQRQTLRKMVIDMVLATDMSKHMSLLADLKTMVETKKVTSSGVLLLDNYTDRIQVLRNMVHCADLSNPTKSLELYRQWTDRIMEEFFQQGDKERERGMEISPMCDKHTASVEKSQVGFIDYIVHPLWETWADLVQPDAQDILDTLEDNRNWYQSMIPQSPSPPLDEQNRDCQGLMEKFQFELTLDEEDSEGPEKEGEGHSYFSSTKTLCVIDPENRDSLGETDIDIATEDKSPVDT
Method: (§1) A standard procedure for PDE testing was carried out according to the previously mentioned protocol. , The enzyme was prepared from U937 cells which were derived from human monocytes, and was stored at −20 °C after preparation. Measurement of PDE4 activity was performed using this stored enzyme after it was diluted with distilled water containing bovine serum albumin. The substrate solution was prepared by adding [3H]-cAMP (300,000 dpm (5000 Bq)/ assay) and […] solution to 100 mmol/L Tris-HCl (pH 8.0) containing 5 mmol/L ethylene glycol-bis (β-aminoethyl ether) and O,O′-bis(2-aminoethyl)-ethylene glycol-N,N,N′,N′-tetraacetic acid. The substrate solution was mixed with the enzyme solution containing a test compound dissolved in DMSO, and incubation was done for 30 min at 30 °C.

[1] = system: TNF-α release in human blood mononuclear cells; assay: LPS-stimulated TNF-α release in PBMCs (TR-FRET); format: cell-based; details: PBMC, LPS stimulation 18 h, read-out: TNFα IC50
Method: The blood was mixed with saline at a ratio of 1:1, and the peripheral blood mononuclear cells (PBMCs) were isolated from buffy coats using Lymphoprep tubes. The PBMCs were suspended in RPMI 1640 with 0.5% human serum albumin, pen/strep, and 2 mM L-glutamine at 5 × 10^5 cells/mL. The cells were preincubated with the test compounds in 96-well plates for 30 min and stimulated for 18 h with […] lipopolysaccharide. TNF-α concentration in the supernatants was measured by homogeneous time-resolved fluorescence resonance (TR-FRET). The assay was quantified by measuring fluorescence at 665 nm (proportional to TNF-α concentration) and 620 nm (control). Results are expressed as IC50 values (μM).
The inhibitory effect of the 19 compounds on the release of HM-TNF-α correlated well with their potency in inhibiting PDE4. […] The well-established correlation between PDE4 inhibition and TNF-α suppression is mechanistically explained by the following pathway: By inhibiting PDE4, these compounds elevate intracellular cAMP levels, which in turn activates protein kinase A (PKA). PKA phosphorylates and inhibits key transcription factors like NF-κB, leading to the downregulation of pro-inflammatory cytokines such as TNF-α. This mechanism provides a solid foundation for understanding the anti-inflammatory effects observed in our study.

PDE4D = PDE4D (Homo sapiens, UniProt Q08499); assay: Human PDE4 enzyme inhibition assay ([3H]-cAMP), PDE4D; format: biochemical
Chain of PDE4D (Q08499 386-715 limits assumed): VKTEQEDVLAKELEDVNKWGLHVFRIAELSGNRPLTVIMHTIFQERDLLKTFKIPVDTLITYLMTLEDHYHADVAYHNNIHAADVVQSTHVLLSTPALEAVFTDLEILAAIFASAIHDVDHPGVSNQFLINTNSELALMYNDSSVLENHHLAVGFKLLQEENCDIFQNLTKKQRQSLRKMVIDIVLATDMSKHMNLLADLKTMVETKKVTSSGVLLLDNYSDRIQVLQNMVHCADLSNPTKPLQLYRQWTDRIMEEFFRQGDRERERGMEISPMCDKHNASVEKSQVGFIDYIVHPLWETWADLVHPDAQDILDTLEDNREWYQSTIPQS
Method: as §1

LPS induced TNF-α = assay: LPS induced sepsis for measurement of TNF-α inhibition in mice; format: in vivo; details: Swiss Albino mice (n = 6), 10 mg/kg po, serum 90 min after LPS
Method: The sepsis model in mice was induced using lipopolysaccharide (LPS) according to the methods described in the literature. Female Swiss albino mice were selected according to the body weights, which were equivalent within each group. The mice were fasted for 20 h with free access to water and dosed for oral administration (po) with the test compounds suspended in vehicle containing 0.5% Tween 80 in 0.25% sodium salt of carboxymethylcellulose. The control mice received the vehicle alone. After 30 min of oral dosing, the mice were injected intraperitoneally with 500 μg of lipopolysaccharide (Escherichia coli, LPS: B4 from Sigma) in phosphate buffer. Then the mice were bled via retro-orbital sinus puncture after 90 min of LPS administration. Serum samples were collected by centrifuging the blood samples at 4000 rpm for 20 min, which were stored overnight at 4 °C. The serum samples were then immediately checked for TNF-α levels using commercial mouse TNF-α ELISA kit (Amersham Biosciences) and assay was carried out following the manufacturer’s instruction.
In vivo experiments were conducted using an LPS-induced sepsis model to measure TNF-α inhibition in female Swiss Albino mice and to assess neutrophilia inhibition for asthma and COPD in male Sprague–Dawley rats. Details such as the oral dosages and the number of animals used, along with the percentage inhibition of neutrophilia calculated from the DLC, are provided in Table . […] These findings are particularly relevant in the context of COPD pathophysiology, where both TNF-α-driven inflammation and neutrophilic influx are well-established key drivers of tissue damage and disease progression.

[2] = system: LPS induced neutrophilia (neutrophil influx in BALF); assay: LPS induced neutrophilia model for asthma and COPD; format: in vivo; details: Sprague–Dawley rats (n = 6), 10 mg/kg po, BAL 6 h after LPS
Method: Neutrophilia was induced in Sprague–Dawley rats by lipopolysaccharide (LPS) following the established protocol. Male Sprague–Dawley rats were acclimatized to laboratory conditions for 1 week prior to the experiment. According to the body weight, the rats were distributed to various groups randomly. Except for the normal group, all the rats were exposed to 100 μg/mL lipopolysaccharide (E. coli, LPS: B4 from Sigma) for 40 min. The rats were dosed with the test compound suspended in the vehicle containing 0.25% carboxymethyl cellulose before half an hour of LPS exposure. Bronchoalveolar lavage (BAL) was performed 6 h after LPS exposure, total cell count and differential leukocyte count (DLC) were performed and compared with control and the standard drug.
In vivo experiments were conducted using an LPS-induced sepsis model to measure TNF-α inhibition in female Swiss Albino mice and to assess neutrophilia inhibition for asthma and COPD in male Sprague–Dawley rats.

[3] = system: tumor necrosis factor-α (TNF-α) in bronchoalveolar lavage fluid; details: oral administration, experimental COPD mice; cited from earlier work
[4] = PDE4B IC50, enzyme prepared from U937 cells, average of at least three assays
[5] = PDE4B pIC50 (Experimental), log(1/IC50), IC50 in μM
[6] = enzyme prepared from U937 cells, average of at least three assays, read-out: PDE4B IC50
[7] = log(1/IC50), IC50 in μM, read-out: PDE4B pIC50 (Experimental) (converted)
[8] = enzyme prepared from U937 cells, average of at least three assays, read-out: PDE4D IC50
[9] = PDE4B, as listed in Table S4 (rounded), read-out: IC50

| SMILES | IC50 [1] | IC50 (PDE4B; [6]) | IC50 (PDE4B; [7]) | IC50 (PDE4D; [8]) | IC50 (PDE4B; [9]) | also measured |
| --- | --- | --- | --- | --- | --- | --- |
| O=C(O)/C=C/c1ccccc1 [Compound 1, trans-cinnamic acid] | 198 ± 8.2 µM | – | – | – | – | IC50 (PDE4B; [4]): 90.3 ± 3.8 µM; IC50 (PDE4B; [5]): 91.2 µM |
| O=C(O)/C=C/c1ccccc1O [Compound 2, ortho-coumaric acid] | 40.4 ± 0.8 µM | 41.4 ± 1.3 µM | 41.7 µM | 39.6 ± 1.7 µM | – | – |
| O=C(O)/C=C/c1cccc(O)c1 [Compound 3, meta-coumaric acid] | 37.8 ± 1.9 µM | 28.4 ± 1.4 µM | 28.2 µM | 32.7 ± 2.1 µM | – | – |
| O=C(O)/C=C/c1ccc(O)cc1 [Compound 4, p-coumaric acid] | 21.5 ± 1.3 µM | – | – | – | – | IC50 (PDE4B; [4]): 2.2 ± 0.8 µM; IC50 (PDE4B; [5]): 2.19 µM; IC50 (PDE4D): 2.3 ± 0.7 µM; TNF-α inhibition (%) (LPS induced TNF-α): 41.1% and 41.1 ± 0.65%; LPS induced neutrophilia (% inhibition) [2]: 32.5% and 32.5 ± 0.33% |
| COc1ccccc1/C=C/C(=O)O [Compound 5, trans-2-methoxycinnamic acid] | 64.2 ± 3.1 µM | 51.1 ± 1.9 µM | 51.3 µM | 91.4 ± 2.9 µM | – | – |
| COc1cccc(/C=C/C(=O)O)c1 [Compound 6, trans-3-methoxycinnamic acid] | 58.3 ± 2 µM | 32.8 ± 1.1 µM | 33.1 µM | 65.6 ± 1.8 µM | – | – |
| COc1ccc(/C=C/C(=O)O)cc1 [Compound 7, trans-4-methoxycinnamic acid] | 30.8 ± 1.6 µM | 8.2 ± 1.2 µM | 8.13 µM | 45.6 ± 1.8 µM | – | selectivity for PDE4B over PDE4D (PDE4B; compared with rolipram): higher selectivity ratios for PDE4B over PDE4D than rolipram; TNF-α inhibition (%) (LPS induced TNF-α): 29.6% and 29.6 ± 0.36%; LPS induced neutrophilia (% inhibition) [2]: 24.2% and 24.2 ± 0.52% |
| Cc1ccccc1/C=C/C(=O)O [Compound 8, trans-2-methylcinnamic acid] | 169 ± 5.1 µM | 137 ± 5.8 µM | 135 µM | – | 136 µM | – |
| Cc1cccc(/C=C/C(=O)O)c1 [Compound 9, trans-3-methylcinnamic acid] | 121 ± 5.7 µM | 102 ± 4.1 µM | 102 µM | – | 102 µM | – |
| Cc1ccc(/C=C/C(=O)O)cc1 [Compound 10, trans-4-methylcinnamic acid] | 99.2 ± 4.1 µM | 85.3 ± 3.8 µM | 85.1 µM | – | 85 µM | – |
| O=C(O)/C=C/c1ccccc1Cl [Compound 11, trans-2-chlorocinnamic acid] | 128 ± 5.8 µM | 82.1 ± 3.9 µM | 81.3 µM | 89.6 ± 3.7 µM | 82 µM | – |
| O=C(O)/C=C/c1cccc(Cl)c1 [Compound 12, trans-3-chlorocinnamic acid] | 119 ± 4.8 µM | 63.2 ± 3.4 µM | 63.1 µM | 62.7 ± 2.8 µM | 63 µM | – |
| O=C(O)/C=C/c1ccc(Cl)cc1 [Compound 13, trans-4-chlorocinnamic acid] | 89.7 ± 3.2 µM | 44.5 ± 2.2 µM | 43.7 µM | 57.3 ± 2.4 µM | 44 µM | – |
| O=C(O)/C=C/c1ccc([N+](=O)[O-])cc1 [Compound 14, trans-4-nitrocinnamic acid] | 96.5 ± 3 µM | 112 ± 6.4 µM | 112 µM | – | 111 µM | – |
| O=Cc1ccc(/C=C/C(=O)O)cc1 [Compound 15, trans-4-formylcinnamic acid] | 98.5 ± 2.8 µM | 101 ± 5.4 µM | 100 µM | – | 101 µM | – |
| O=C(O)/C=C/c1ccc(F)cc1 [Compound 16, trans-4-fluorocinnamic acid] | 65.2 ± 3.1 µM | 33.4 ± 1.5 µM | 33.1 µM | 36.6 ± 2.1 µM | 33 µM | – |
| O=C(O)/C=C/c1ccc(Br)cc1 [Compound 17, trans-4-bromocinnamic acid] | 125 ± 5.5 µM | 87.2 ± 3.5 µM | 87.1 µM | – | 87 µM | – |
| CN(C)c1ccc(/C=C/C(=O)O)cc1 [Compound 18, trans-4-dimethylaminocinnamic acid] | 65.2 ± 3.1 µM | – | 33.1 µM | 19.6 ± 1.1 µM | 33 µM | – |
| O=C(O)/C=C/c1ccc(C(F)(F)F)cc1 [Compound 19, trans-4-trifluoromethylcinnamic acid] | 118 ± 5.1 µM | 97.2 ± 4.3 µM | 97.7 µM | – | 97 µM | – |
| COc1ccc(C2CNC(=O)C2)cc1OC1CCCC1 (stereo not shown) [Rolipram, reference compound] | 18.5 ± 1 µM | – | – | – | – | TNF-α inhibition (%) (LPS induced TNF-α): 41.7% and 41.7 ± 0.78%; LPS induced neutrophilia (% inhibition) [2]: 32.8% and 32.8 ± 0.40% |
| O=C(O)C=Cc1cc(O)c(O)c(O)c1 [THCA, 3,4,5-Trihydroxycinnamic acid] | – | – | – | – | – | TNF-α in bronchoalveolar lavage fluid [3]: significantly inhibited |
